# Values quoted from earlier work as cited in patent publication US10064865B2, “Composition comprising phosphodiesterase type 5 inhibitor for inhibiting apoptosis of nerve cells” (ARIBIO INC., priority 2012, dated 2018).
# Tested on: B-chronic lymphocytic leukemia cells
# Conditions: Marika Sarfati et al., BLOOD 2003; cited from earlier work
structure (smiles),measurement,value
CCCc1nn(C)c2c(=O)[nH]c(-c3cc(S(=O)(=O)N4CCN(C)CC4)ccc3OCC)nc12 [sildenafil],apoptosis of B-chronic lymphocytic leukemia cells,induce caspase-dependent apoptosis
